Results taken from ChEMBL document CHEMBL4725298, “Exploration of piperazine-derived thioureas as antibacterial and anti-inflammatory agents. In vitro evaluation against clinical isolates of colistin-resistant Acinetobacter baumannii” (Bioorg Med Chem Lett, 2020).
≈ marks a conversion by molar mass, not a printed value. Calls of active or inactive are those of the source. No cut-off for these calls is given here.

Experiments:
Acinetobacter baumannii [1] = experiment: Antibacterial activity against colistin-resistant Acinetobacter baumannii 24 assessed as reduction in bacterial growth incubated for 24 hrs by standard broth microdilution method; type: functional
Acinetobacter baumannii [2] = experiment: Antibacterial activity against colistin-resistant Acinetobacter baumannii 22P assessed as reduction in bacterial growth incubated for 24 hrs by standard broth microdilution method; type: functional
[3] = Cytotoxicity against human A549 cells; type: cell-based
Acinetobacter baumannii [4] = experiment: Antibacterial activity against colistin-resistant Acinetobacter baumannii 21R assessed as reduction in bacterial growth incubated for 24 hrs by standard broth microdilution method; type: functional
RAW264.7 [5] = experiment: Antiinflammatory activity against mouse RAW264.7 cells assessed as reduction in LPS-induced NO production at 50 uM incubated for 24 hrs by Griess assay; type: functional, cell-based
RAW264.7 [6] = experiment: Antiinflammatory activity against mouse RAW264.7 cells assessed as reduction in LPS-induced NO production at 1 to 10 uM incubated for 24 hrs by Griess assay relative to control; type: functional; details: dose microM 1-10
Acinetobacter baumannii [7] = experiment: Antibacterial activity against colistin-resistant Acinetobacter baumannii 14 assessed as reduction in bacterial growth incubated for 24 hrs by standard broth microdilution method; type: functional
Acinetobacter baumannii [8] = experiment: Antibacterial activity against colistin-resistant Acinetobacter baumannii 11 assessed as reduction in bacterial growth incubated for 24 hrs by standard broth microdilution method; type: functional
Acinetobacter baumannii [9] = experiment: Antibacterial activity against colistin-resistant Acinetobacter baumannii 17 assessed as reduction in bacterial growth incubated for 24 hrs by standard broth microdilution method; type: functional
Acinetobacter baumannii [10] = experiment: Antibacterial activity against Acinetobacter baumannii 21R assessed as fractional inhibitory concentration incubated for 24 hrs by standard broth microdilution method relative to control; type: functional
Acinetobacter baumannii [11] = experiment: Antibacterial activity against Acinetobacter baumannii 22P assessed as fractional inhibitory concentration incubated for 24 hrs by standard broth microdilution method relative to control; type: functional
RAW264.7 [12] = experiment: Cytotoxicity against mouse RAW264.7 cells assessed as reduction in cell viability at 1 to 10 uM incubated for 24 hrs; type: cell-based; details: raw264.7, 24 h, dose 1-10 µM
Acinetobacter baumannii [13] = experiment: Synergistic antibacterial activity against Acinetobacter baumannii 22P assessed as fractional inhibitory concentration index incubated for 24 hrs in presence of colistin by standard broth microdilution method; type: functional
Acinetobacter baumannii [14] = experiment: Bactericidal activity against colistin-resistant Acinetobacter baumannii 21R assessed as log10 reduction of bacterial colony forming unit at 2 times of MIC incubated for 4 hrs by time kill curve based analysis; type: functional
Acinetobacter baumannii [15] = experiment: Antibacterial activity against Acinetobacter baumannii 22P assessed as reduction in bacterial growth in presence of colistin incubated for 24 hrs by standard broth microdilution method; type: functional
Acinetobacter baumannii [16] = experiment: Bactericidal activity against colistin-resistant Acinetobacter baumannii 22P at 12.5 to 50 uM incubated upto 24 hrs by time kill curve based analysis; type: functional, organism-based; details: dose microM 12.5-50, time hrs <=24
Acinetobacter baumannii [17] = experiment: Potentiation of colistin-induced antibacterial activity against Acinetobacter baumannii 21R assessed as fold reduction in colistin MIC incubated for 24 hrs by standard broth microdilution method; type: functional
Acinetobacter baumannii [18] = experiment: Bactericidal activity against colistin-resistant Acinetobacter baumannii 21R at 4 times of MIC incubated for 4 hrs by time kill curve based analysis; type: functional, organism-based
Acinetobacter baumannii [19] = experiment: Antibacterial activity against Acinetobacter baumannii 21R assessed as reduction in bacterial growth in presence of colistin incubated for 24 hrs by standard broth microdilution method; type: functional
Acinetobacter baumannii [20] = experiment: Synergistic antibacterial activity against Acinetobacter baumannii 21R assessed as fractional inhibitory concentration index incubated for 24 hrs in presence of colistin by standard broth microdilution method; type: functional
Acinetobacter baumannii [21] = experiment: Potentiation of colistin-induced antibacterial activity against Acinetobacter baumannii 22P assessed as fold reduction in colistin MIC incubated for 24 hrs by standard broth microdilution method; type: functional

Molecule | MIC (Acinetobacter baumannii [1]) [µM] | MIC (Acinetobacter baumannii [2]) [µM] | CC50 [3] [µM] | MIC (Acinetobacter baumannii [4]) [µM] | inhibition (RAW264.7 [5]) | inhibition (INH) (RAW264.7 [6]) | MIC (Acinetobacter baumannii [7]) [µM] | further results
CC1CN(C(=O)CC(C)(C)C)CCN1C(=S)Nc1cc(C(F)(F)F)cc(C(F)(F)F)c1 (racemic) | 6.25 (≈ 2.93 µg/mL) | 6.25 (≈ 2.93 µg/mL) | 73.2 | 6.25 (≈ 2.93 µg/mL) | Active | 40% | 50 (≈ 23.5 µg/mL) | 
CC1CN(C(=O)CC2CCCCC2)CCN1C(=S)Nc1ccc(Cl)cc1 (stereo not drawn) | 25 (≈ 9.85 µg/mL) | 12.5 (≈ 4.92 µg/mL) | 200 | 12.5 (≈ 4.92 µg/mL) |  |  | 50 (≈ 19.7 µg/mL) | 
CC1CN(C(=O)CC2CCCCC2)CCN1C(=S)Nc1ccc([N+](=O)[O-])cc1 (stereo not drawn) |  | 12.5 (≈ 5.06 µg/mL) |  | 25 (≈ 10.1 µg/mL) | Active |  |  | Activity (Acinetobacter baumannii [1]): inactive; Activity (Acinetobacter baumannii [8]): inactive; Activity (Acinetobacter baumannii [9]): inactive; Activity (Acinetobacter baumannii [7]): inactive
COLISTIN | 7 | 3540 |  | 1770 |  |  | 56 | FIC (Acinetobacter baumannii [10]): 0.38; MIC (Acinetobacter baumannii [8]): 14 µM; MIC (Acinetobacter baumannii [9]): > 111 µM; FIC (Acinetobacter baumannii [11]): 0.25
C[C@@H]1CN(C(=O)CC(C)(C)C)CCN1C(=S)Nc1cc(C(F)(F)F)cc(C(F)(F)F)c1 | 6.25 (≈ 2.93 µg/mL) | 12.5 (≈ 5.87 µg/mL) | 162 | 6.25 (≈ 2.93 µg/mL) |  |  |  | 
CC1CN(C(=O)CC2CCCCC2)CCN1C(=S)Nc1cc(C(F)(F)F)cc(C(F)(F)F)c1 (stereo not drawn) | 25 (≈ 12.4 µg/mL) | 1.56 (≈ 0.773 µg/mL) | 82 | 3.12 (≈ 1.55 µg/mL) | Active | 40% | 50 (≈ 24.8 µg/mL) | 
CC1CN(C(=O)Cc2ccccc2)CCN1C(=S)Nc1ccc(C(F)(F)F)cc1 (stereo not drawn) |  |  |  |  | Active |  |  | Activity (Acinetobacter baumannii [1]): inactive; Activity (Acinetobacter baumannii [2]): inactive; Activity (Acinetobacter baumannii [4]): inactive; Activity (Acinetobacter baumannii [8]): inactive; Activity (Acinetobacter baumannii [9]): inactive; Activity (Acinetobacter baumannii [7]): inactive
CC1CN(C(=O)CC2CCCCC2)CCN1C(=S)Nc1ccc(C(F)(F)F)cc1 (stereo not drawn) | 3.12 (≈ 1.33 µg/mL) | 6.25 (≈ 2.67 µg/mL) |  | 25 (≈ 10.7 µg/mL) |  |  | 12.5 (≈ 5.34 µg/mL) | 
O=C(CC1CCCCC1)N1CCN(C(=S)Nc2cc(C(F)(F)F)cc(C(F)(F)F)c2)C(c2ccccc2)C1 (stereo not drawn) | 3.12 (≈ 1.74 µg/mL) | 6.25 (≈ 3.49 µg/mL) | 125 | 3.12 (≈ 1.74 µg/mL) | Active | >=80% |  | MIC (Acinetobacter baumannii [8]): 3.12 µM (≈ 1.74 µg/mL); Activity (RAW264.7 [12]): Toxic
CC(C)(C)OC(=O)N1CCN(C(=S)Nc2cc(C(F)(F)F)cc(C(F)(F)F)c2)C(c2ccccc2)C1 (stereo not drawn) |  |  | 127 |  | Active | >=80% | 12.5 (≈ 6.67 µg/mL) | MIC (Acinetobacter baumannii [9]): 6.25 µM (≈ 3.33 µg/mL); Activity (RAW264.7 [12]): Toxic
O=C(Cc1ccccc1)N1CCN(C(=S)Nc2cc(C(F)(F)F)cc(C(F)(F)F)c2)C(c2ccccc2)C1 (stereo not drawn) |  |  |  |  | Active |  |  | MIC (Acinetobacter baumannii [9]): 3.12 µM (≈ 1.72 µg/mL)
CC1CN(C(=O)OC(C)(C)C)CCN1C(=S)Nc1cc(C(F)(F)F)cc(C(F)(F)F)c1 (stereo not drawn) |  |  | 112 |  | Active | 40% | 3.12 (≈ 1.47 µg/mL) | 
C[C@H]1CN(C(=O)CC(C)(C)C)CCN1C(=S)Nc1cc(C(F)(F)F)cc(C(F)(F)F)c1 | 12.5 (≈ 5.87 µg/mL) | 6.25 (≈ 2.93 µg/mL) | 73.5 | 6.25 (≈ 2.93 µg/mL) |  |  |  | 
CC1CN(C(=O)Cc2ccccc2)CCN1C(=S)Nc1cc(C(F)(F)F)cc(C(F)(F)F)c1 (stereo not drawn) | 6.25 (≈ 3.06 µg/mL) |  | 130 | 3.12 (≈ 1.53 µg/mL) | Active |  | 3.12 (≈ 1.53 µg/mL) | MIC (Acinetobacter baumannii [8]): 6.25 µM (≈ 3.06 µg/mL); MIC (Acinetobacter baumannii [9]): 3.12 µM (≈ 1.53 µg/mL)
CC1CN(C(=O)Cc2ccccc2)CCN1C(=S)Nc1ccc(Cl)cc1 (stereo not drawn) |  |  |  |  | Active |  |  | Activity (Acinetobacter baumannii [1]): inactive; Activity (Acinetobacter baumannii [2]): inactive; Activity (Acinetobacter baumannii [4]): inactive; Activity (Acinetobacter baumannii [8]): inactive; Activity (Acinetobacter baumannii [9]): inactive; Activity (Acinetobacter baumannii [7]): inactive
CC1CN(C(=O)CC2CCCCC2)CCN1C(=S)Nc1ccc(C#N)cc1 (stereo not drawn) |  |  |  |  | Active |  |  | Activity (Acinetobacter baumannii [1]): inactive; Activity (Acinetobacter baumannii [2]): inactive; Activity (Acinetobacter baumannii [4]): inactive; Activity (Acinetobacter baumannii [8]): inactive; Activity (Acinetobacter baumannii [9]): inactive; Activity (Acinetobacter baumannii [7]): inactive
CC(C)(C)CC(=O)N1CCN(C(=S)Nc2cc(C(F)(F)F)cc(C(F)(F)F)c2)C(c2ccccc2)C1 (stereo not drawn) | 3.12 (≈ 1.66 µg/mL) | 3.12 (≈ 1.66 µg/mL) |  | 3.12 (≈ 1.66 µg/mL) | Active | >=80% |  | MIC (Acinetobacter baumannii [8]): 3.12 µM (≈ 1.66 µg/mL)
CC(C)(C)OC(=O)N1CCN(C(=S)Nc2cc(C(F)(F)F)cc(C(F)(F)F)c2)CC1 |  | 12.5 (≈ 5.72 µg/mL) | 109 | 6.25 (≈ 2.86 µg/mL) | Active |  | 6.25 (≈ 2.86 µg/mL) | fractional inhibitory concentration index (FICI) (Acinetobacter baumannii [13]): 0.37; Activity (Acinetobacter baumannii [14]): 3 log10CFU/ml; FIC (Acinetobacter baumannii [10]): 0.12; MIC (Acinetobacter baumannii [15]): 1.56 µM; Activity (Acinetobacter baumannii [16]): inactive; fold change (FC) (Acinetobacter baumannii [17]): 4; Activity (Acinetobacter baumannii [18]): Active; MIC (Acinetobacter baumannii [19]): 0.78 µM; MIC (Acinetobacter baumannii [8]): 12.5 µM (≈ 5.72 µg/mL); fractional inhibitory concentration index (FICI) (Acinetobacter baumannii [20]): 0.5; fold change (FC) (Acinetobacter baumannii [21]): 4; MIC (Acinetobacter baumannii [9]): 6.25 µM (≈ 2.86 µg/mL); FIC (Acinetobacter baumannii [11]): 0.12
